From patent US20240299395A1, “COMBINATION THERAPIES COMPRISING WEE1 INHIBITORS AND DNA DAMAGE RESPONSE (DDR) INHIBITORS” (Recurium IP Holdings, LLC, priority 2021, published 2024)
Where two headings read alike, the source gives them in different places.

Columns and labels:
Format in all cases: cell-based
HL-60 (AML) cell line = assay: CellTiter-Glo (CTG) cell viability, HL-60; settings: for single agent activity (figure legend): HL-60, FIGS. 9-11, 72 h
Description: (§1) 20,000 MDA-MB-231 cells were incubated in a 96 well plate as a triplicate with 500 nM of ZN-c3 and 10 nM of CHK inhibitor or 700 nM of ATR inhibitor as a single agent or the combination of both for 72 h. 20,000 H23 cells were incubated in a 96 well plate as a triplicate with 150 nM of ZN-c3 and 5 nM of CHK inhibitor or 500 nM of ATR inhibitor as a single agent or the combination of both for 72 h. 10,000 MV4-11 cells were incubated in a 96 well plate as a triplicate with 400 nM of ZN-c3 and 2 nM of CHK inhibitor or 2000 nM of ATM inhibitor as a single agent or the combination of both for 72 h. 20,000 THP-1 cells were incubated in a 96 well plate as a triplicate with 600 nM of ZN-c3 and 4 nM of CHK inhibitor or 1000 nM of ATR inhibitor as a single agent or the combination of both for 72 h. 10,000 HL-60 cells were incubated in a 96 well plate as a triplicate with 750 nM of ZN-c3 and 15 nM of CHK inhibitor or 2000 nM of ATM inhibitor as a single agent or the combination of both for 72 h. 10,000 LNCaP cells were incubated in a 96 well plate as a triplicate with 500 nM of ZN-c3 and 10 nM of CHK inhibitor or 1000 nM of ATM inhibitor as a single agent or the combination of both for 72 h. For each cell line, the cell viability was assessed using a CellTiter-Glo® (CTG) assay.
(§2) 10,000 MV4-11 cells were incubated in a 96 well plate as a triplicate with 2 nM of ZN-d5, 400 nM of ZN-c3 and 2 nM of CHK inhibitor or 2000 nM of ATM inhibitor or 150 nM of ATR inhibitor as a single, double or triple combination for 72 h. 20,000 THP-1 cells were incubated in a 96 well plate as a triplicate with 100 nM of ZN-d5, 600 nM of ZN-c3 and 4 nM of CHK inhibitor or 1000 nM of ATM inhibitor or 1000 nM of ATR inhibitor as a single, double or triple combination for 72 h. 10,000 HL-60 cells were incubated in a 96 well plate as a triplicate with 75 nM of ZN-d5, 750 nM of ZN-c3 and 15 nM of CHK inhibitor or 2000 nM of ATM inhibitor or 1000 nM of ATR inhibitor as a single, double or triple combination for 72 h. For each cell line, the cell viability was assessed using a CellTiter-Glo® (CTG) assay.

THP-1 (AML) cell line = assay: CellTiter-Glo (CTG) cell viability, THP-1; settings: for single agent activity (figure legend): THP-1, FIGS. 7-8, 72 h
Description: as §1, §2

MV4-11 (AML) cell line = assay: CellTiter-Glo (CTG) cell viability, MV4-11; settings: for single agent activity (figure legend): MV4-11, FIGS. 5-6, 72 h
Description: as §1, §2

[1] = system: LNCaP (Prostate) cell line; assay: CellTiter-Glo (CTG) cell viability, LNCaP; settings: for single agent activity (figure legend): FIGS. 12-13, 72 h
Description: as §1

H23 (NSCLC) cell line = assay: CellTiter-Glo (CTG) cell viability, H23; settings: for single agent activity (figure legend): H23, FIGS. 3-4, 72 h
Description: as §1

[2] = system: MDA-MB-231 (TNBC) cell line; assay: CellTiter-Glo (CTG) cell viability, MDA-MB-231; settings: for single agent activity (figure legend): MDA-MB-231, FIGS. 1-2, 72 h
Description: as §1

[3] = Table 4, 75 nM ZN-d5, 750 nM ZN-c3, 15 nM CHK inhibitor, 2000 nM ATM inhibitor, 1000 nM ATR inhibitor, single, double or triple combination, 72 h
[4] = Table 4, 100 nM ZN-d5, 600 nM ZN-c3, 4 nM CHK inhibitor, 1000 nM ATM inhibitor, 1000 nM ATR inhibitor, single, double or triple combination, 72 h
[5] = Table 4, 2 nM ZN-d5, 400 nM ZN-c3, 2 nM CHK inhibitor, 2000 nM ATM inhibitor, 150 nM ATR inhibitor, single, double or triple combination, 72 h
[6] = Table 1, 150 nM ZN-c3, 5 nM CHK inhibitor, single agent or combination, 72 h
[7] = Table 1, 500 nM ZN-c3, 10 nM CHK inhibitor, single agent or combination, 72 h
[8] = Homo sapiens, HL-60, 72 h, Table 4, 75 nM ZN-d5, 750 nM ZN-c3, 15 nM CHK inhibitor, 2000 nM ATM inhibitor, 1000 nM ATR inhibitor, single, double or triple combination, 72 h, read-out: HL60 % Inhibition
[9] = Homo sapiens, THP-1, 72 h, Table 4, 100 nM ZN-d5, 600 nM ZN-c3, 4 nM CHK inhibitor, 1000 nM ATM inhibitor, 1000 nM ATR inhibitor, single, double or triple combination, 72 h
[10] = Homo sapiens, MV4-11, 72 h, Table 4, 2 nM ZN-d5, 400 nM ZN-c3, 2 nM CHK inhibitor, 2000 nM ATM inhibitor, 150 nM ATR inhibitor, single, double or triple combination, 72 h

CN(C)CCCOc1ccc(-c2ccc3ncc4c(c3c2)n(C2CCOCC2)c(=O)n4C)cn1 [ATMi, AZD0156]
single agent activity (figure legend) (HL-60 (AML) cell line): practically no activity
HL60 % Inhibition (HL-60 (AML) cell line; Table 3, 750 nM ZN-c3, 2000 nM ATM inhibitor, single agent or combination, 72 h): 3%
HL60 % Inhibition (HL-60 (AML) cell line; [3]): 2.95%
single agent activity (figure legend) (THP-1 (AML) cell line): single agent activity was observed
THP % Inhibition (THP-1 (AML) cell line; [4]): 19.52%
single agent activity (figure legend) (MV4-11 (AML) cell line): single agent activity was observed
MV4; 11 % Inhibition (MV4-11 (AML) cell line; Table 3, 400 nM ZN-c3, 2000 nM ATM inhibitor, single agent or combination, 72 h): 18%
MV4; 11 % Inhibition (MV4-11 (AML) cell line; [5]): 18.48%
single agent activity (figure legend) ([1]; LNCaP): single agent activity was observed
LNCaP % Inhibition ([1]; Table 3, 500 nM ZN-c3, 1000 nM ATM inhibitor, single agent or combination, 72 h): 14%

CNCc1ccc(-c2cc(-c3nc(-c4ccc(S(=O)(=O)C(C)C)cc4)cnc3N)on2)cc1 [ATRi, Berzosertib]
single agent activity (figure legend) (HL-60 (AML) cell line): single agent activity was observed
inhibition at 1 µM (HL-60 (AML) cell line; Homo sapiens, HL-60, 72 h, Table 2, 750 nM ZN-c3, ATR inhibitor (1000 nM), single agent or combination, 72 h, read-out: HL60 % Inhibition): 15%
HL60 % Inhibition (HL-60 (AML) cell line; [3]): 15.91%
single agent activity (figure legend) (H23 (NSCLC) cell line): single agent activity was observed
H23 % Inhibition (H23 (NSCLC) cell line; Table 2, 150 nM ZN-c3, 500 nM ATR inhibitor, single agent or combination, 72 h): 35%
THP % Inhibition (THP-1 (AML) cell line; Table 2, 600 nM ZN-c3, 1000 nM ATR inhibitor, single agent or combination, 72 h): 37%
THP % Inhibition (THP-1 (AML) cell line; [4]): 36.93%
MV4; 11 % Inhibition (MV4-11 (AML) cell line; [5]): 13.99%
single agent activity (figure legend) [2]: single agent activity was observed
MDA-MB-231 % Inhibition ([2]; Table 2, 500 nM ZN-c3, 700 nM ATR inhibitor, single agent or combination, 72 h): 33%

COc1cccc(OCCCN)c1-c1cc(Nc2cnc(C#N)cn2)n[nH]1 [CHKi, Prexasertib]
single agent activity (figure legend) (HL-60 (AML) cell line): no activity
HL60 % Inhibition (HL-60 (AML) cell line; Table 1, 750 nM ZN-c3, 15 nM CHK inhibitor, single agent or combination, 72 h): 0%
HL60 % Inhibition (HL-60 (AML) cell line; [3]): 0%
single agent activity (figure legend) (H23 (NSCLC) cell line): practically no activity
H23 % Inhibition (H23 (NSCLC) cell line; [6]): 1%
THP % Inhibition (THP-1 (AML) cell line; Table 1, 600 nM ZN-c3, 4 nM CHK inhibitor, single agent or combination, 72 h): 32%
THP % Inhibition (THP-1 (AML) cell line; [4]): 32.29%
single agent activity (figure legend) (MV4-11 (AML) cell line): no activity
MV4; 11 % Inhibition (MV4-11 (AML) cell line; Table 1, 400 nM ZN-c3, 2 nM CHK inhibitor, single agent or combination, 72 h): 0%
MV4; 11 % Inhibition (MV4-11 (AML) cell line; [5]): 0%
single agent activity (figure legend) ([1]; LNCaP): single agent activity was observed
LNCaP % Inhibition [1, 7]: 14%
single agent activity (figure legend) [2]: single agent activity was observed
MDA-MB-231 % Inhibition [2, 7]: 26%

C=CCn1c(=O)c2cnc(Nc3ccc(N4CCN(C)CC4)cc3)nc2n1-c1ccc2c(n1)[C@@](O)(CC)CC2 [ZN-c3]
single agent activity (figure legend) (HL-60 (AML) cell line): single agent activity was observed
inhibition at 0.75 µM (HL-60 (AML) cell line; Homo sapiens, HL-60, 72 h, Table 1, 750 nM ZN-c3, 15 nM CHK inhibitor, single agent or combination, 72 h, read-out: HL60 % Inhibition): 25%
inhibition at 0.75 µM (HL-60 (AML) cell line; Homo sapiens, HL-60, 72 h, Table 3, 750 nM ZN-c3, 2000 nM ATM inhibitor, single agent or combination, 72 h, read-out: HL60 % Inhibition): 25%
inhibition at 0.75 µM (HL-60 (AML) cell line; [8]): 25.5%
single agent activity (figure legend) (H23 (NSCLC) cell line): single agent activity was observed
inhibition at 0.15 µM (H23 (NSCLC) cell line; [6]): 22%
inhibition at 0.6 µM (THP-1 (AML) cell line; Homo sapiens, THP-1, 72 h, Table 1, 600 nM ZN-c3, 4 nM CHK inhibitor, single agent or combination, 72 h): 18%
inhibition at 0.6 µM (THP-1 (AML) cell line; Homo sapiens, THP-1, 72 h, Table 2, 600 nM ZN-c3, 1000 nM ATR inhibitor, single agent or combination, 72 h): 18%
inhibition at 0.6 µM (THP-1 (AML) cell line; [9]): 18.1%
single agent activity (figure legend) (THP-1 (AML) cell line): single agent activity was observed
inhibition at 0.4 µM (MV4-11 (AML) cell line; Homo sapiens, MV4-11, 72 h, Table 1, 400 nM ZN-c3, 2 nM CHK inhibitor, single agent or combination, 72 h): 49%
inhibition at 0.4 µM (MV4-11 (AML) cell line; Homo sapiens, MV4-11, 72 h, Table 3, 400 nM ZN-c3, 2000 nM ATM inhibitor, single agent or combination, 72 h): 49%
inhibition at 0.4 µM (MV4-11 (AML) cell line; [10]): 49.2%
single agent activity (figure legend) (MV4-11 (AML) cell line): single agent activity was observed
inhibition at 0.5 µM ([1]; Homo sapiens, LNCaP, Table 1, 500 nM ZN-c3, 10 nM CHK inhibitor, single agent or combination, 72 h): 24%
single agent activity (figure legend) ([1]; LNCaP): single agent activity was observed
inhibition at 0.5 µM ([2]; Homo sapiens, MDA-MB-231, Table 1, 500 nM ZN-c3, 10 nM CHK inhibitor, single agent or combination, 72 h): 35%
single agent activity (figure legend) [2]: single agent activity was observed

CC1(C)CCC(CN2CCN(c3ccc(C(=O)NS(=O)(=O)c4ccc(NC[C@H]5CC[C@](C)(O)CC5)c([N+](=O)[O-])c4)c(Oc4cnc5[nH]ccc5c4)c3)CC2)=C(C23CC(C(F)F)(C2)C3)C1 [ZN-d5, 2-((1H-pyrrolo[2,3-b]pyridin-5-yl)oxy)-4-(4-((2-(3-(difluoromethyl)bicyclo[1.1.1]pentan-1-yl)-4,4-dimethylcyclohex-1-en-1-yl)methyl)piperazin-1-yl)-N-((4-((((1r,4r)-4-hydroxy-4-methylcyclohexyl)methyl)amino)-3-nitrophenyl)sulfonyl)benzamide]
inhibition at 0.075 µM (HL-60 (AML) cell line; [8]): 37.6%
inhibition at 0.1 µM (THP-1 (AML) cell line; [9]): 2.6%
inhibition at 0.002 µM (MV4-11 (AML) cell line; [10]): 8.44%
